Key:
[1] = biological target: T1, NDM-1 (Klebsiella pneumoniae, UniProt C7C422); format: biochemical; settings: Bi(III) 1.5 µM (as Bi(NIT)3); 0.900 at 0 µM
Description: NDM-1 (50 nM) was incubated with Bi(NIT)3 (0.5, 1.0, and 1.5 µM) for 1 h at 25 °C with gentle shaking. The assay was performed in a 96-well microplate reader at 298 K. The final assay buffer contains 50 mM HEPES at pH 7.0, 100 mM NaCl, with MER as the substrate ranging from 10 to 150 µM. Control experiment was also performed in the absence of inhibitors under the same conditions. The Km and Vmax for both the uninhibited and inhibited reactions were obtained by fitting the data into the double reciprocal Lineweaver–Burk plots.

[2] = biological target: NDM-1-C208A (Klebsiella pneumoniae, UniProt C7C422, C208A); experiment: Bi(III) binding capacity by ICP-MS
Description: To monitor the displacement of Zn(II) by Bi(III), ICP-MS was employed to accurately quantify ^209Bi and ^66Zn contents in various purified NDM-1 samples. Purified Zn-bound-NDM-1 (20 μM) dissolved in trace-metal-free ICP-MS buffer containing 50 mM HEPES, pH 7.0, was incubated with various concentrations of CBS at 25 °C for 5 h with mild shaking. The samples were subsequently dialyzed in ICP-MS buffer to remove unbound-metal ions and were then acidified and subsequently analyzed using an ICP-MS spectrometer (Agilent 7500a, Agilent Technologies, CA, USA) with ^115In as an internal standard for ^209Bi, ^66Zn, and ^34S contents, which are used to quantify protein concentration.

[3] = biological target: T1, NDM-1; experiment: Zinc supplementation assay; format: biochemical; settings: supplementation of 2 molar equivalents of Zn(II); Bi-NDM-1 prepared with CBS
Description: To investigate whether bismuth inhibits the enzyme reversibly, enzyme activities of Bi-NDM-1 and apo-NDM-1 were compared upon the supplementation of Zn(II). Bi-bound NDM-1 (50 nM) was prepared by pre-incubation of apo-bound NDM-1 with CBS for 2 h at 25 °C, followed by removal of unbound Bi(III) and the bound Bi was verified by ICP-MS. The above protein solutions were mixed with ZnSO4 at concentration up to 2 molar equivalents to NDM-1 and 100 µM MER. The change in absorbance at 300 nm was monitored on a Varian Cary 50 UV-visible spectrophotometer at 25 °C for calculation of reaction rates. Reaction rate of apo-NDM-1 with addition of 2 molar equivalents of ZnSO4 was normalized to 1. The metal content of Bi-bound NDM-1 treated with Zn(II) was measured and analyzed by ICP-MS as described in the previous section.

[4] = tested on: IMP-BL21 (IMP-4^+); experiment: microbe, parasite or virus in culture; format: cell-based, E. coli
Description: (§1) MIC values were determined by standard broth micro-dilution method (Clinical and Laboratory Standards Institute (CLSI) M100-S20, 2010)[64]. Briefly, bacterial cells were cultured in LB broth overnight at 37 °C at 250 rpm and the OD was measured at 600 nm (OD600). The bacterial density was adjusted to about 1 × 10^6 CFU mL^−1 and checked by CFU counting on agar plates afterwards. Tested antibiotics or Bi(III) compounds were added triplicately into individual wells of flat-bottomed 96-well plates and performed 2-fold serial dilution, followed by addition of prepared bacterial inocula. The plate was then incubated at 37 °C for overnight. […] The MIC was determined as the lowest concentration of a drug that could inhibit the growth of microorganism by both visual reading and OD reading at 600 nm using a microtiter plate reader.
(§2) Resulting growth (or lack of growth) was examined after overnight culturing and the lowest concentration that inhibits 99.9% of the original culture was taken as MBC.
(§3) Other procedures were kept strictly the same. […] Synergism was defined when FICI ≤ 0.5, indifference was defined when FICI > 0.5 and < 4, and antagonism was defined when FICI≥4[65]. […] All of the determinations were performed at least in triplicate on different days.

[5] = tested on: NDM-HK (NDM-1^+); experiment: microbe, parasite or virus in culture; format: cell-based, E. coli; settings: Escherichia coli
Description: as §1, §2, §3

[6] = tested on: VIM-BL21 (VIM-2^+); experiment: microbe, parasite or virus in culture; format: cell-based, E. coli
Description: as §1, §2, §3

[7] = tested on: NDM-K. pneumonia (NDM-1^+); experiment: Microdilution MIC/MBC and checkerboard assay; format: cell-based, Klebsiella pneumonia; settings: NDM-K. pneumonia (NDM-KP)
Description: as §1, §2, §3

[8] = tested on: NDM-C. freundii (NDM-1^+); experiment: Microdilution MIC/MBC and checkerboard assay; format: cell-based, Citrobacter freundii; settings: NDM-C. freundii (NDM-CF)
Description: as §1, §2, §3

[9] = tested on: NDM-BL21; experiment: Microdilution MIC assay; format: cell-based, E. coli; settings: Escherichia coli, CBS0, read-out: MIC of MER, CBS at 0
Excerpt: (§4) Other procedures were kept strictly the same.

[10] = tested on: NDM-Rosetta; experiment: Microdilution MIC assay; format: cell-based, E. coli; settings: Escherichia coli, CBS0, read-out: MIC of MER, CBS at 0
Excerpt: as §4

[11] = tested on: NDM-Rosetta OX; experiment: Microdilution MIC assay; format: cell-based, E. coli; settings: Escherichia coli, CBS0, read-out: MIC of MER, CBS at 0, NDM-Rosetta OX (NDM-1 overexpressing); CBS 0 µg mL-1
Description: For the test of NDM-Rosetta OX, the growth condition briefly goes as follow. Overnight culture of NDM-Rosetta was 1000-fold diluted into fresh LB medium and regrew to OD ~0.6. The overexpression of NDM-1 was induced by addition of 1 mM isopropyl β-D-1-thiogalactopyranoside (IPTG) for 4 h at 37 °C. The following susceptibility test was performed as described in the Microdilution MIC and MBC assay section in the methodology by using the resulting bacterial pellets with the supplementation of 200 µM IPTG.
as §4

[12] = tested on: C208A-Rosetta; experiment: Microdilution MIC assay; format: cell-based, E. coli; settings: Escherichia coli, CBS0, read-out: MIC of MER, CBS at 0
Description: For the test of C208A-Rosetta, the growth condition briefly goes as follow. Overnight culture of C208A-Rosetta was diluted into fresh LB medium (1000-fold) and regrew to OD ~0.6. The overexpression of NDM-1-C208A was induced by addition of 200 μM isopropyl β-D-1-thiogalactopyranoside (IPTG) for 18 h at 25 °C. The following susceptibility test was performed as described in the Microdilution MIC and MBC assay section in the methodology by using the resulting bacterial pellets with the supplementation of 200 μM IPTG.
as §4

[13] = tested on: NDM-HK; experiment: Resistance study: MPC and mutation frequency; format: cell-based, E. coli; settings: no CBS
[14] = tested on: NDM-HK; experiment: In vitro cell infection assay (MDCK cells); format: cell-based, E. coli; settings: MOI 200, MER at 2-fold MIC alone, overnight
Description: MDCK cell was cultured in minimum essential Media (MEM) supplemented with fetal bovine serum (FBS, 10%) and grown at 37 °C in 5% CO2-humidified atmosphere for 3 days. About 1.0 × 10^5 MDCK cells were seeded per well in 24-well plates and incubated as described above for 48 h to ensure confluency. Logarithmic cultures of NDM-HK were washed with PBS for three times and re-suspended in MEM/10% FBS resulting in the initial bacterial density of about 2.0 × 10^7 CFU mL^−1. Then, 500 μL of bacterial suspension were added to each well and substituted for the previous MDCK culture medium. The plates were centrifuged at 800 × g for 10 min and then incubated for another 6 h, executing the bacterial infection at multiplicity of infection (MOI) of 200. We then used two infection models for examination, viz, the cell-associated bacterial infection and cell-invaded bacterial infection. The cell-associated bacteria are herein defined as bacteria that attach to, penetrate, or transcytose in MDCK cells, while the cell-invaded bacteria are defined as bacteria that penetrate or transcytose MDCK cells. For the cell-invaded infection, the infected cells were incubated in culture medium supplemented with ciprofloxacin (100 µg mL^−1) for 1 h to remove extracellular bacteria. Then, the treated cells were washed vigorously with PBS for six times and replenished with culture medium. For the cell-associated infection, the infected cells were only washed vigorously with PBS for six times to remove unbound bacteria. The infected MDCK cells were then exposed to either MER or CBS, or their combination for overnight under identical cell culture condition. Cells in the absence of drugs served as a control. The bacterial loads were examined by lysing MDCK cells with 1% Triton X-100 in PBS and serially diluting the resulting lysates to enumerate bacterial colonies by agar plating. The assay was performed in triplicate, repeated three times, and results were expressed as average ± SD.

[15] = tested on: NDM-HK; experiment: Murine peritonitis infection, mucin-assisted model; format: in vivo, BALB/c mice; settings: 2% mucin, i.p. twice daily
Excerpt: All experiments were approved by, and performed in accordance with the guidelines approved by Committee on the Use of Live Animals in Teaching and Research (CULATR), the University of Hong Kong. A total of 6–8-week-old, female BALB/c mice (18–22 g) were purchased from Charles River Laboratories, Inc. and were used in all mouse studies. The animals were randomized to cages for each experiment.
In mucin-assisted model, for infection with NDM-1-positive bacteria, an overnight culture of NDM-HK was performed 1:250 dilution in 100 mL LB broth and re-grew to about OD600 0.3 in a 500-mL flask after 2.5 h shaking at 37 °C, 250 rpm. Bacterial pellets were collected and washed by PBS buffer three times for further use. Mice were infected intraperitoneally (i.p.) with a dose of 1 × 10^5 CFU of bacteria in PBS supplemented with 2% mucin. […] Twice-daily treatment via i.p. injection was continued throughout the whole experimental course. For the infection with NDM-1-negative bacteria, all the operations of infection were similar to those used for NDM-HK, except that NDM-HK PCV was used as infection-causing bacteria. […] Twice-daily treatment via i.p. injection was continued throughout the whole experimental course. Body weights and mice survival were monitored till endpoint of the experiment.

[16] = tested on: NDM-HK PCV; experiment: Murine peritonitis infection with NDM-1-negative bacteria; format: in vivo, BALB/c mice; settings: identical dose of MER, lethal dose of NDM-HK PCV
[17] = Escherichia coli, read-out: MBC of MER alone
[18] = Escherichia coli, read-out: MIC of MER alone

T1 sequence (C7C422 29-270, looked up, species assumed): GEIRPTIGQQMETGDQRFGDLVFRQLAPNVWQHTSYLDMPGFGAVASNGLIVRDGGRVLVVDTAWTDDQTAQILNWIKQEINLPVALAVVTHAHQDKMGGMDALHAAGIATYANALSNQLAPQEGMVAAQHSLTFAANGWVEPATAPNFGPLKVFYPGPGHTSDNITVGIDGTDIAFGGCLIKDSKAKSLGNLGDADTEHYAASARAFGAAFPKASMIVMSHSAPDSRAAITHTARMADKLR
NDM-1-C208A, sequence (C7C422 29-270 C208A): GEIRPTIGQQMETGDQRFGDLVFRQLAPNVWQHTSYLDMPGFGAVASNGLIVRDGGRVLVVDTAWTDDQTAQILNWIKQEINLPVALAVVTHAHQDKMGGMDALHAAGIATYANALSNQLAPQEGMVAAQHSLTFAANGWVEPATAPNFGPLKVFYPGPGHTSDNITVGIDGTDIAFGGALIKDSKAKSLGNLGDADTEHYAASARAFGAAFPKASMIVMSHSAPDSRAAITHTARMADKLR

Q: How did the “apparent Vmax” value [1] turn out when `[Bi+3]` [Bi(III)] was run?
A: 0.365 µM/s

Q: And the “Bi(III) bound to the mutant” value [2]?
A: ca. 0.25 molar equivalents

Q: And the “activity restored for Bi-bound NDM-1” value [3]?
A: about 20%

Q: `C[C@@H](O)[C@H]1C(=O)N2C(C(=O)O)=C(S[C@@H]3CN[C@H](C(=O)N(C)C)C3)[C@H](C)[C@H]12` [MER, meropenem] was tested. Which MBC [4, 17] did it give?
A: 32 µg/mL

Q: What about the MIC [4, 18] of the same molecule?
A: 32 µg/mL

Q: And the “MBC of MER alone” value ([4]; IMP-BL21)?
A: 32/32 µg mL^-1

Q: What about the “MIC of MER alone” value ([4]; IMP-BL21) of the same molecule?
A: 32/32 µg mL^-1

Q: And the MIC ([5]; CBS0, read-out: MIC of MER alone)?
A: 16 µg/mL

Q: And the MBC ([5]; read-out: MBC of MER alone)?
A: 16 µg/mL

Q: And the MBC [6, 17]?
A: 32 µg/mL

Q: And the MIC [6, 18]?
A: 32 µg/mL

Q: What about the “MBC of MER alone” value ([6]; VIM-BL21) of the same molecule?
A: 32/32 µg mL^-1

Q: And the “MIC of MER alone” value ([6]; VIM-BL21)?
A: 32/32 µg mL^-1

Q: And the MBC ([7]; Klebsiella pneumoniae, read-out: MBC of MER alone)?
A: 16 µg/mL

Q: And the MIC ([7]; Klebsiella pneumoniae, read-out: MIC of MER alone)?
A: 16 µg/mL

Q: And the “MBC of MER alone” value [7]?
A: 16/16 µg mL^-1

Q: What about the “MIC of MER alone” value [7] of the same molecule?
A: 16/16 µg mL^-1

Q: And the MBC ([8]; Citrobacter freundii, read-out: MBC of MER alone)?
A: 8 µg/mL

Q: What about the MIC ([8]; Citrobacter freundii, read-out: MIC of MER alone) of the same molecule?
A: 8 µg/mL

Q: And the “MBC of MER alone” value [8]?
A: 8/8 µg mL^-1

Q: What about the “MIC of MER alone” value [8] of the same molecule?
A: 8/8 µg mL^-1

Q: And the MIC [9]?
A: 16 µg/mL

Q: What about the MIC [10] of the same molecule?
A: 32 µg/mL

Q: And the MIC [11]?
A: 256 µg/mL

Q: What about the MIC [12] of the same molecule?
A: 0.12 µg/mL

Q: And the “MPC of MER alone” value [13]?
A: 32 folds of MIC

Q: And the “viable bacterial loads, cell-associated infection” value [14]?
A: ~10^6 CFU

Q: And the “mice rescued at endpoint, MER monotherapy” value [15]?
A: two of the eight mice

Q: What about the “outcome of MER monotherapy in mice infected with NDM-HK PCV” value [16] of the same molecule?
A: cured all the mice

— PMC5789847, “Bismuth antimicrobial drugs serve as broad-spectrum metallo-β-lactamase inhibitors” (Nature Communications, 2018)
